Experimental findings from patent US8269008B2, “Oxazolopyridine and isoxazolopyridine derivatives for use in the treatment of HIF-mediated conditions” (FibroGen, Inc., priority 2007, dated 2012) are described below.

The target of the assay is T1, HIF-PH2 (EGLN1) (Homo sapiens, UniProt Q9GZT9).
T1 construct: made in house; host or cells: insect Hi5 cells
Description: HIF-PH assay (14CO2 capture, peptide-dependent turnover). The class given is biochemical. The settings on record: for inhibition at 22.22 µM: Concentration 22.22 μM; for inhibition at 200 µM: Concentration 200.00 μM. An excerpt: Ketoglutaric acid α-[1-^14C]-sodium salt, alpha-ketoglutaric acid sodium salt, and HPLC purified peptide may be obtained from commercial sources, e.g., Perkin-Elmer (Wellesley Mass.), Sigma-Aldrich, and SynPep Corp. (Dublin Calif.), respectively. Peptides for use in the assay may be fragments of HIFα as described above or as disclosed in International Publication WO 2005/118836, incorporated by reference herein. For example, a HLF peptide for use in the HIF-PH assay is [methoxycoumarin]-DLDLEALAPYIPADDDFQL-amide. HIF-PH, e.g., HIF-PH2 (EGLN1), can be expressed in, e.g., insect Hi5 cells, and partially purified, e.g., through a SP ion exchange chromatography column. Enzyme activity is determined by capturing ^14CO2 using an assay described by Kivirikko and Myllyla (1982, Methods Enzymol. 82:245-304). Assay reactions contain 50 mM HEPES (pH 7.4), 100 μM α-ketoglutaric acid sodium salt, 0.30 μCi/mL ketoglutaric acid α-[1-^14C]-sodium salt, 40 μM FeSO4, 1 mM ascorbate, 1541.8 units/mL Catalase, with or without 50 μM peptide substrate and various concentrations of compound of the invention. Reactions are initiated by addition of HIF-PH enzyme.
The peptide-dependent percent turnover is calculated by subtracting percent turnover in the absence of peptide from percent turnover in the presence of substrate peptide. Percent inhibition and IC50 are calculated using peptide-dependent percent turnover at given inhibitor concentrations. Calculation of IC50 values for each inhibitor is conducted using GraFit software (Erithacus Software Ltd., Surrey UK). […]

Structures are written as SMILES.

T1 sequence (Q9GZT9 whole entry, species assumed): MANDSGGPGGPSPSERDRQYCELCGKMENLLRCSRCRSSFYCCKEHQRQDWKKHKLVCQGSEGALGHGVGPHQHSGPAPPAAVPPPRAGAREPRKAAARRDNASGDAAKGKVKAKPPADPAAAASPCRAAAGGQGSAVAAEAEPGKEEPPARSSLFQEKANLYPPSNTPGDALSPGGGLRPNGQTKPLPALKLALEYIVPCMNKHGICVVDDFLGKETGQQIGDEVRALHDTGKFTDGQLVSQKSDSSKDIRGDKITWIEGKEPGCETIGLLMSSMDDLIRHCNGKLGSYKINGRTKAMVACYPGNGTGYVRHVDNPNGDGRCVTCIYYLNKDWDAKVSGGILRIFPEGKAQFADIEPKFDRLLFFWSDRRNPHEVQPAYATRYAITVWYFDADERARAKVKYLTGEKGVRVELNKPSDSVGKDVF

In the case of `O=C(O)CNC(=O)c1ncc2onc(-c3ccc(C(F)(F)F)cc3)c2c1O` [Example 34, {[4-Hydroxy-3-(4-trifluoromethyl-phenyl)-isoxazolo[5,4-c]pyridine-5-carbonyl]-amino}-acetic acid], at 22.22 µM the inhibition was 97.8%.
In turn, `O=C(O)CNC(=O)c1ncc2onc(-c3ccccc3OC(F)(F)F)c2c1O` [Example 35, {[4-Hydroxy-3-(2-trifluoromethoxy-phenyl)-isoxazolo[5,4-c]pyridine-5-carbonyl]-amino}-acetic acid] came in with an inhibition at 22.22 µM of 86.3%.
As to `O=C(O)CNC(=O)c1nc(-c2ccncc2)c2onc(-c3ccccc3)c2c1O` [Example 36, [(4-Hydroxy-3-phenyl-7-pyridin-4-yl-isoxazolo[5,4-c]pyridine-5-carbonyl)-amino]-acetic acid], at 22.22 µM the inhibition was 98.5%.
The molecule `O=C(O)CNC(=O)c1nc(-c2ccccn2)c2onc(-c3ccccc3)c2c1O` [Example 37, [(4-Hydroxy-3-phenyl-7-pyridin-2-yl-isoxazolo[5,4-c]pyridine-5-carbonyl)-amino]-acetic acid] displayed an inhibition at 22.22 µM of 99.6%.
As to `O=C(O)CNC(=O)c1nc(C(F)(F)F)c2onc(-c3ccccc3)c2c1O` [Example 38, [(4-Hydroxy-3-phenyl-7-trifluoromethyl-isoxazolo[5,4-c]pyridine-5-carbonyl)-amino]-acetic acid], the inhibition at 22.22 µM was determined as 97.8%.
The same measure, in the same setting: with `O=C(O)CNC(=O)c1ncc2onc(-c3ccc(OC(F)(F)F)cc3)c2c1O` [Example 39, {[4-Hydroxy-3-(4-trifluoromethoxy-phenyl)-isoxazolo[5,4-c]pyridine-5-carbonyl]-amino}-acetic acid] the figure was 98.7%; with `CC(C)(C)c1ccc(-c2noc3cnc(C(=O)NCC(=O)O)c(O)c23)cc1` [Example 40, {[3-(4-tert-Butyl-phenyl)-4-hydroxy-isoxazolo[5,4-c]pyridine-5-carbonyl]-amino}-acetic acid], 98.8%.
For `O=C(O)CNC(=O)c1nc(Br)c2onc(-c3ccccc3)c2c1O` [Example 41, [(7-Bromo-4-hydroxy-3-phenyl-isoxazolo[5,4-c]pyridine-5-carbonyl)-amino]-acetic acid], at 22.22 µM the inhibition was 99.4%.
`O=C(O)CNC(=O)c1ncc2c(-c3ccccc3)noc2c1O` [Example 42, [(7-Hydroxy-3-phenyl-isoxazolo[4,5-c]pyridine-6-carbonyl)-amino]-acetic acid] came in with an inhibition at 200 µM of 98.4%.
The molecule `C[C@H](NC(=O)c1ncc2c(-c3ccccc3)noc2c1O)C(=O)O` [Example 43, (S)-2-[(7-Hydroxy-3-phenyl-isoxazolo[4,5-c]pyridine-6-carbonyl)amino]-propionic acid] showed an inhibition at 200 µM of 98.7%.
Consider `C[C@@H](NC(=O)c1ncc2c(-c3ccccc3)noc2c1O)C(=O)O` [Example 44, (R)-2-[(7-Hydroxy-3-phenyl-isoxazolo[4,5-c]pyridine-6-carbonyl)-amino]-propionic acid], for which testing at 200 µM gave an inhibition of 82.2%.
As to `O=C(O)CNC(=O)c1ncc2c(-c3ccc(F)cc3)noc2c1O` [Example 45, {[3-(4-Fluoro-phenyl)-7-hydroxy-isoxazolo[4,5-c]pyridine-6-carbonyl]-amino}-acetic acid], the inhibition at 200 µM was 98.6%.
With `COc1ccc(-c2noc3c(O)c(C(=O)NCC(=O)O)ncc23)cc1` [Example 46, {[7-Hydroxy-3-(4-methoxy-phenyl)-isoxazolo[4,5-c]pyridine-6-carbonyl]-amino}-acetic acid], the inhibition at 200 µM is 99.4%.
In turn, `O=C(O)CNC(=O)c1ncc2c(-c3cccs3)noc2c1O` [Example 47, [(7-Hydroxy-3-thiophen-2-yl-isoxazolo[4,5-c]pyridine-6-carbonyl)-amino]-acetic acid] showed an inhibition at 200 µM of 99%.
Take `O=C(O)CNC(=O)c1ncc2c(-c3ccncc3)noc2c1O` [Example 48, [(7-Hydroxy-3-pyridin-4-yl-isoxazolo[4,5-c]pyridine-6-carbonyl)-amino]-acetic acid]: testing at 200 µM gave an inhibition of 100%.
The same measure, in the same setting: the figure for `O=C(O)CNC(=O)c1ncc2c(-c3ccc(Br)o3)noc2c1O` [Example 49, {[3-(5-Bromo-furan-2-yl)-7-hydroxy-isoxazolo[4,5-c]pyridine-6-carbonyl]-amino}-acetic acid] is 96.3%.
Molecule `Cc1nc(C(=O)NCC(=O)O)c(O)c2onc(-c3ccccc3)c12` [Example 50, [(7-Hydroxy-4-methyl-3-phenyl-isoxazolo[4,5-c]pyridine-6-carbonyl)-amino]-acetic acid] registered an inhibition at 200 µM of 99.5%.
`N#Cc1nc(C(=O)NCC(=O)O)c(O)c2onc(-c3cccs3)c12` [Example 51, [(4-Cyano-7-hydroxy-3-thiophen-2-yl-isoxazolo[4,5-c]pyridine-6-carbonyl)-amino]-acetic acid] returned an inhibition at 200 µM of 98.8%.
On to `N#Cc1nc(C(=O)NCC(=O)O)c(O)c2onc(-c3ccc(F)cc3)c12` [Example 52, {[4-Cyano-3-(4-fluoro-phenyl)-7-hydroxy-isoxazolo[4,5-c]pyridine-6-carbonyl]-amino}-acetic acid], for which testing at 200 µM gave an inhibition of 98.6%.
Same read-out and setting: with `COc1ccc(-c2noc3c(O)c(C(=O)NCC(=O)O)nc(C#N)c23)cc1` [Example 53, {[4-Cyano-7-hydroxy-3-(4-methoxy-phenyl)-isoxazolo[4,5-c]pyridine-6-carbonyl]-amino}-acetic acid] the figure was 99.4%.
For `N#Cc1nc(C(=O)NCC(=O)O)c(O)c2onc(-c3ccc(Br)o3)c12` [Example 54, {[3-(5-Bromo-furan-2-yl)-4-cyano-7-hydroxy-isoxazolo[4,5-c]pyridine-6-carbonyl]-amino}-acetic acid], at 200 µM the inhibition was 99.9%.
`COc1ccc(-c2noc3c(O)c(C(=O)NCC(=O)O)nc(-c4ccccc4)c23)cc1` [Example 55, {[7-Hydroxy-3-(4-methoxy-phenyl)-4-phenyl-isoxazolo[4,5-c]pyridine-6-carbonyl]-amino}-acetic acid]: the inhibition at 22.22 µM stood at 98.9%.
`COc1ccc(-c2noc3c(O)c(C(=O)NCC(=O)O)nc(C)c23)cc1` [Example 56, {[7-Hydroxy-3-(4-methoxy-phenyl)-4-methyl-isoxazolo[4,5-c]pyridine-6-carbonyl]-amino}-acetic acid]: testing at 200 µM gave an inhibition of 98.9%.
For the molecule `O=C(O)CNC(=O)c1nc(C#Cc2ccccc2)c2c(-c3ccccc3)noc2c1O` [Example 57, [(7-Hydroxy-3-phenyl-4-phenylethynyl-isoxazolo[4,5-c]pyridine-6-carbonyl)-amino]-acetic acid], 22.22 µM produced 98.6% inhibition.
`C#Cc1nc(C(=O)NCC(=O)O)c(O)c2onc(-c3ccccc3)c12` [Example 58, [(4-Ethynyl-7-hydroxy-3-phenyl-isoxazolo[4,5-c]pyridine-6-carbonyl)-amino]-acetic acid] came in with an inhibition at 200 µM of 100%.
For `O=C(O)CNC(=O)c1nc(C2CC2)c2c(-c3cccs3)noc2c1O` [Example 59, [(4-Cyclopropyl-7-hydroxy-3-thiophen-2-yl-isoxazolo[4,5-c]pyridine-6-carbonyl)-amino]-acetic acid], the inhibition at 200 µM came out at 99.3%.
In turn, `COc1ccc(-c2noc3c(O)c(C(=O)NCC(=O)O)nc(Cn4cccn4)c23)cc1` [Example 60, {[7-Hydroxy-3-(4-methoxy-phenyl)-4-pyrazol-1-ylmethyl-isoxazolo[4,5-c]pyridine-6-carbonyl]-amino}-acetic acid] returned an inhibition at 200 µM of 100%.
For the molecule `CC(=O)c1nc(C(=O)NCC(=O)O)c(O)c2onc(-c3ccccc3)c12` [Example 61, [(4-Acetyl-7-hydroxy-3-phenyl-isoxazolo[4,5-c]pyridine-6-carbonyl)-amino]-acetic acid], testing at 200 µM gave an inhibition of 100%.
Turning to `O=C(O)CNC(=O)c1nc(Cc2ccccc2)c2c(-c3ccccc3)noc2c1O` [Example 62, [(4-Benzyl-7-hydroxy-3-phenyl-isoxazolo[4,5-c]pyridine-6-carbonyl)-amino]-acetic acid], the inhibition at 200 µM is 100%.
`O=C(O)CNC(=O)c1nc(-c2cn(Cc3ccccc3)nn2)c2c(-c3ccccc3)noc2c1O` [Example 63, {[4-(1-Benzyl-1H-[1,2,3]-triazol-4-yl)-7-hydroxy-3-phenyl-isoxazolo[4,5-c]pyridine-6-carbonyl]-amino}-acetic acid]: testing at 200 µM gave an inhibition of 100%.
In turn, `O=C(O)CNC(=O)c1nc(C(F)(F)F)c2c(-c3ccccc3)noc2c1O` [Example 64, [(7-Hydroxy-3-phenyl-4-trifluoromethyl-isoxazolo[4,5-c]pyridine-6-carbonyl)-amino]-acetic acid] returned an inhibition at 200 µM of 94.2%.
In turn, `O=C(O)CNC(=O)c1ncc2c(C3=CCCCC3)noc2c1O` [Example 65, [(3-Cyclohex-1-enyl-7-hydroxy-isoxazolo[4,5-c]pyridine-6-carbonyl)-amino]-acetic acid] registered an inhibition at 200 µM of 100%.
`CCc1noc2c(O)c(C(=O)NCC(=O)O)ncc12` [Example 66, [(3-Ethyl-7-hydroxy-isoxazolo[4,5-c]pyridine-6-carbonyl)-amino]-acetic acid] came in with an inhibition at 200 µM of 99.1%.
